The values below come from patent US20020120098A1, “Enhanced stimulation of erythropoiesis” (priority 1996, published 2002).

Common to all, as to assay type: cell-based, human
For test [1], the system named is erythroid progenitors. Nature of the test: Colony formation assay, adult peripheral blood LDMNC: erythroid progenitors overall. As to conditions: for growth of erythroid progenitors in the absence of Epo, adult blood: 0 U/ml Epo; for erythroid progenitor number, adult blood, 5% O2 and 0.2 U/ml Epo (in words): 5% O2, 0.2 U/ml Epo, over untreated controls under the same conditions. The protocol:
Blood was collected with informed consent from the antecubital vein of healthy adult human volunteers into vacutainers containing 143 USP U/ml sodium heparin. Low density mononuclear cells (LDMNC) were isolated by centrifugation over a density gradient as described in Example 1. Plastic adherent cells were removed by an overnight incubation in a tissue culture flask and the non-adherent cells were placed directly in a CFA. Conditions for the CFA are similar to those described in Examples 1-4.
Mean fold increase in adult blood BFU-E, CFU-E and CFU-GM progenitor number in the presence of reduced Epo (0.2 U/ml) (n=3) at 20% O2 is shown in FIG. 11 with and without (no addition) the additives used in FIG. 9. Results are expressed relative to control cells at 2 U/ml Epo treated only with the respective vehicles (solid line at fold expansion=1.0). […] As with cord blood, CFU-GM numbers were unaffected by reductions in Epo. The addition of HAo or HEMOLINK™ to CFAs containing 0.2 U/ml Epo stimulated ˜4.5- and ˜3.5-fold increases in BFU-E and CFU-E, respectively, compared to untreated controls (no addition), restoring the progenitor number to that obtained at 2 U/ml Epo. Hemin stimulated the greatest increase in BFU-E and CFU-E (˜9- and ˜6-fold, respectively) at 0.2 U/ml Epo versus the untreated controls (no addition). FeCl3 stimulated only a ˜2-fold increase in erythroid progenitor number at 0.2 U/ml Epo.
Mean fold increase in adult blood BFU-E, CFU-E and CFU-GM progenitor number at 5% O2 in the presence of reduced Epo (0.2 U/ml) (n=3) is shown in FIG. 12 with and without the additives used in FIG. 9. Results are expressed relative to control cells at 2 U/ml Epo treated only with the respective vehicles and cultured at ambient oxygen tensions (˜20% O2) for 14 days (solid line at fold expansion=1.0). The number of erythroid progenitors stimulated at 5% O2 and 0.2 U/ml Epo was similar to that obtained with 2.0 U/ml Epo maintained at ambient oxygen tensions (no addition).

Test [2] relates to CFU-GM. Nature of the test: Colony formation assay (CFA), cord blood LDMNC: CFU-GM colonies. Conditions: 2 U/ml Epo; for effect on CFU-GM numbers (in words): ambient O2; for CFU-GM progenitor number, fold increase: ambient O2, vs vehicle control. On the procedure: This technique, referred to as the colony formation assay (CFA), is the most widely used biological assay to identify and enumerate erythroid progenitors present in hematopoietic tissue such as blood and bone marrow. Cell populations containing erythroid progenitors are plated in semi-solid suspensions of methyl cellulose, agar, low melting agarose or related substances in nutrient culture medium containing 1-3 U/ml Epo and 10 ng/ml IL-3 to specifically stimulate erythroid progenitors. Plates are incubated at 37° C. for 14 days during which time the erythroid progenitors form characteristic hemoglobinized (red) colonies. Two distinct but related erythroid progenitors can be distinguished based on colony size and morphology: BFU-E, the most primitive recognizable erythroid progenitor forms large multilobular colonies whereas the more mature CFU-E forms smaller spherical colonies.
Adult hemoglobin was purified according to U.S Pat. Nos. 5,439,591 and 5,545,328 to obtain HAo and HEMOLINK™ was prepared from HAo according to U.S. Pat. No. 5,532,352. Human umbilical cord blood intended for discard was collected from the umbilical vein of placentas immediately postpartum into 10 ml vacutainer tubes containing 143 USP units/ml sodium heparin. Low density mononuclear cells were separated from red blood cells by centrifugation over a 1.077 g/ml density gradient Cells removed from the plasma/density gradient interface were incubated overnight in a tissue culture flask with 10 ml cell culture medium containing 10% fetal bovine serum, and non-adherent LDMNC were further purified with an additional density gradient step. The LDMNC were then plated into colony formation assays (CFA) on the second day of isolation. In the CFA, LDMNC were plated at a density of 1×10^5 cells/ml in Iscoves modified Dulbeccos cell culture medium containing 0.8% methyl-cellulose, 30% fetal bovine serum, 1% bovine serum albumin, 0.1 mM 2-mercaptoethanol and 2 mM L-glutamine. Unless indicated otherwise, under standard CFA conditions 2 U/ml Epo and 10 ng/ml IL-3 are added to the formulation to stimulate hematopoietic progenitor growth, specifically BFU-E, CFU-E and CFU-GM.
Each condition was tested in duplicate in from 2-18 independent experiments. Cultures were maintained in a humidified incubator at 37° C., 5% CO2 and ambient oxygen tensions. The number of hematopoietic progenitors was scored between days 13-15 by counting the number and types of colonies present.
The effect of the various additives on the inhibitory effect of succinylacetone (SA), a heme synthesis inhibitor, on erythroid progenitors was determined. Primary LDMNC were cultured in methyl cellulose as described in Example 1. Cord blood LDMN were plated in the presence of 1.0 mg/ml HAo (15.6 μM; n=12) or HEMOLINK™ (15.6 μM; n=5), 100 μM hemin (n=12), 250 μM FeCl3 (n=11) or no addition (n=12), in absence or presence of 0.5 mM SA. Cultures were maintained in a humidified chamber at 37° C., 5% CO2, and ambient oxygen tensions for 14 days.
HEMOLINK™ was evaluated for its ability to protect erythroid progenitor cells from toxicity due to ganciclovir. Cord blood LDMNC were set up in CFAs in the presence and absence of 1 mg/ml HEMOLINK™ plus 0, 0.1, 1.0, 10, 50 or 100 μM ganciclovir. Conditions for the CFA were similar to those described in Examples 1-4. […] All data are expressed relative to the number of colonies of control plates without HEMOLINK™. The hematopoietic progenitors display different sensitivities to ganciclovir. CFU-E were unaffected by 1 μM ganciclovir. However, a similar inhibition of BFU-E occurs at a 50-fold lower dose of ganciclovir (1 μM). […] Due to the difficulty in scoring CFU-GM in the presence of hemoglobin precipitates, as previously noted, they could not be accurately measured under these conditions. Thus, HEMOLINK™ reduces toxicity of ganciclovir to erythroid progenitors with the most pronounced effect on BFU-E cells.

Test [3] has as its system BFU-E. The test is described as follows: Colony formation assay (CFA), cord blood LDMNC: BFU-E colonies. As to conditions: 5% O2, 0.2 U/ml Epo; 100 μM hemin, 1.0 mg/ml HAo or HEMOLINK; relative to controls at 2 U/ml Epo, ambient O2.
Where [4] appears, read: dose 1000 μg/ml, underestimated due to hemoglobin precipitates.

Take `[Cl][Fe]([Cl])[Cl]` [FeCl3]: the “growth of erythroid progenitors in the absence of Epo, adult blood” value (from here on “growth of erythroid progenitors”) in test [1] is on record as “could not support the growth of erythroid progenitors in the absence of Epo”. In addition, the “fold increase in erythroid progenitor number, adult blood, 0.2 U/ml Epo” value in test [1] (0.2 U/ml Epo, ~20% O2, 250 μM FeCl3) is on record as about 2 fold. In addition, the “effect on CFU-GM numbers (in words)” value in test [2] is “unaffected”. Also, the “CFU-GM progenitor number, fold increase” value in test [2] (dose 1.0 μM) was found to be 1.2 fold; in test [2] (dose 10 μM) it was 1.0 fold; in test [2] (dose 100 μM) it was 0.8 fold; in test [2] (dose 250 μM) it was 1.3 fold.

In the case of `C=CC1=C(C)C2=Cc3c(C=C)c(C)c4[n]3[Fe-2]35([Cl])[n]6c(c(C)c(CCC(=O)O)c6=CC6=[N+]3C(=C4)C(C)=C6CCC(=O)O)=CC1=[N+]25` [hemin], the “growth of erythroid progenitors” value in test [1] was “could not support the growth of erythroid progenitors in the absence of Epo”. For the same compound, the “erythroid progenitor number, adult blood, 5% O2 and 0.2 U/ml Epo (in words)” value in test [1] is recorded as “stimulated further increases in erythroid progenitor number”. Moreover, the “fold increase in BFU-E at 0.2 U/ml Epo and 5% O2” value in test [3] is recorded as 4 fold. The “effect on CFU-GM numbers (in words)” value in test [2] is “unaffected”. Also, the “CFU-GM progenitor number, fold increase” value in test [2] (dose 1.0 μM) turned out to be 1.5 fold; in test [2] (dose 10 μM), 1.4 fold; in test [2] (dose 64 μM) it was 1.2 fold; in test [2] (dose 100 μM), 1.0 fold; in test [2] (dose 250 μM), 1.4 fold.

For the compound “HAo: adult human hemoglobin obtained from red blood cells and purified by displacement chromatography; uncross linked product”, in test [1], the “growth of erythroid progenitors” value is on record as “could not support the growth of erythroid progenitors in the absence of Epo”. The “erythroid progenitor number, adult blood, 5% O2 and 0.2 U/ml Epo (in words)” value in test [1] is “stimulated further increases in erythroid progenitor number”. In test [3], the “fold increase in BFU-E at 0.2 U/ml Epo and 5% O2” value was found to be 3.3 fold. Besides, the “effect on CFU-GM numbers (in words)” value in test [2] is “does not stimulate CFU-GM”. Further, the “CFU-GM progenitor number, fold increase” value in test [2] (dose 10 μg/ml) is recorded as 1.4 fold; in test [2] (dose 100 μg/ml), 1.5 fold; in test [2] (dose 500 μg/ml) it was 1.2 fold; in test [2] (setting [4]) it was “**0.5 fold”.

With “HEMOLINK™: chemically crosslinked hemoglobin prepared by treating human hemoglobin with a polyaldehyde (O-raffinose)”, in test [1], the “growth of erythroid progenitors” value is listed as “could not support the growth of erythroid progenitors in the absence of Epo”; the “erythroid progenitor number, adult blood, 5% O2 and 0.2 U/ml Epo (in words)” value is listed as “stimulated further increases in erythroid progenitor number”. Besides, the “fold increase in BFU-E at 0.2 U/ml Epo and 5% O2” value in test [3] amounted to 2.6 fold. In test [2] (setting [4]), the “CFU-GM progenitor number, fold increase” value is reported as “*0.6 fold”.
